Experimental data as given in the supplement of paper PMC10307832.

Columns and labels:
Experiment in all cases: relative viability (nuclei count vs DMSO), 5 days (fraction); higher = more cells survive
ALW-II-49-7 + Olaparib = compound: Cc1ccc(C(=O)Nc2cccc(C(F)(F)F)c2)cc1Nc1cncc(C(N)=O)c1 [ALW-II-49-7] + O=C(c1cc(Cc2n[nH]c(=O)c3ccccc23)ccc1F)N1CCN(C(=O)C2CC2)CC1 [Olaparib] (partner 8 µM)
Method in brief: (§1)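 Lung cancer cell lines in 1536-well plates got either a single drug or a fixed anchor-drug dose together with five library-drug doses (not always all listed) in √10 steps, by pin tool, on the day after seeding. Nuclei were counted after 5 days, and relative viability is the treated-to-vehicle ratio of nuclei counts. Values are medians of duplicate plates.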

XMD13-2 + Foretinib = compound: C1CC1C(=O)NC2=NNC3=C2C=CC(=C3)C4=CC(=CC=C4)C(=O)NC5CC5 [XMD13-2] + COc1cc2c(Oc3ccc(NC(=O)C4(C(=O)Nc5ccc(F)cc5)CC4)cc3F)ccnc2cc1OCCCN1CCOCC1 [Foretinib] (partner 0.25 µM)
Method in brief: as §1

Dasatinib + OSI-027 = compound: Cc1nc(Nc2ncc(C(=O)Nc3c(C)cccc3Cl)s2)cc(N2CCN(CCO)CC2)n1 [Dasatinib] + COc1cccc2cc(-c3nc([C@H]4CC[C@H](C(=O)O)CC4)n4ncnc(N)c34)[nH]c12 [OSI-027] (partner 0.5 µM)
Method in brief: as §1

Dasatinib + Navitoclax = compound: Cc1nc(Nc2ncc(C(=O)Nc3c(C)cccc3Cl)s2)cc(N2CCN(CCO)CC2)n1 [Dasatinib] + CC1(C)CCC(c2ccc(Cl)cc2)=C(CN2CCN(c3ccc(C(=O)NS(=O)(=O)c4ccc(N[C@H](CCN5CCOCC5)CSc5ccccc5)c(S(=O)(=O)C(F)(F)F)c4)cc3)CC2)C1 [Navitoclax] (partner 0.5 µM)
Method in brief: as §1

Cell Line	relative viability (ALW-II-49-7 + Olaparib; first compound 0.08 µM)	relative viability (ALW-II-49-7 + Olaparib; first compound 0.253 µM)	relative viability (ALW-II-49-7 + Olaparib; first compound 0.8 µM)	relative viability (ALW-II-49-7 + Olaparib; first compound 2.53 µM)	relative viability (ALW-II-49-7 + Olaparib; first compound 8 µM)	relative viability (XMD13-2 + Foretinib; first compound 0.05 µM)	relative viability (XMD13-2 + Foretinib; first compound 0.1581 µM)	relative viability (XMD13-2 + Foretinib; first compound 0.5 µM)	relative viability (XMD13-2 + Foretinib; first compound 1.581 µM)	relative viability (XMD13-2 + Foretinib; first compound 5 µM)	relative viability (Dasatinib + OSI-027; first compound 0.005 µM)	relative viability (Dasatinib + OSI-027; first compound 0.01581 µM)	relative viability (Dasatinib + OSI-027; first compound 0.05 µM)	relative viability (Dasatinib + OSI-027; first compound 0.1581 µM)	relative viability (Dasatinib + OSI-027; first compound 0.5 µM)	relative viability (Dasatinib + Navitoclax; first compound 0.005 µM)	relative viability (Dasatinib + Navitoclax; first compound 0.01581 µM)	relative viability (Dasatinib + Navitoclax; first compound 0.05 µM)	relative viability (Dasatinib + Navitoclax; first compound 0.1581 µM)	relative viability (Dasatinib + Navitoclax; first compound 0.5 µM)
NCI-H2009	0.601	0.654	0.665	0.422	0.428	1.3	1.2	1.2	1.17	1.3	0.698	0.501	0.407	0.189	0.158	1.23	1.12	1.3	0.761	0.235
NCI-H2023	0.458	0.543	0.649	0.451	0.424	0.82	0.825	0.791	0.798	0.864	0.418	0.326	0.248	0.26	0.211	0.978	0.854	0.795	0.778	0.488
NCI-H2085	0.701	0.776	0.756	0.844	0.763	0.971	0.943	0.963	0.857	0.923	0.554	0.626	0.34	0.251	0.164	0.757	0.929	0.737	0.411	0.245
NCI-H2087	0.583	0.569	0.463	0.578	0.514	1.4	1.27	1.22	1.08	0.727	0.571	0.607	0.697	0.531	0.278	0.997	0.873	1.07	0.972	0.532
NCI-H2126	0.823	0.882	0.979	0.891	0.87	1.16	1.18	1.16	1.29	1.1	0.722	0.551	0.623	0.611	0.307	0.868	0.76	0.804	0.621	0.374
NCI-H2170	0.76	0.595	0.562	0.535	0.603	0.937	0.97	1.03	0.9	0.984	0.71	0.635	0.711	0.568	0.323	0.545	0.473	0.572	0.267	0.232
NCI-H2228	0.683	0.879	0.606	0.531	0.57	0.912	1.13	0.839	0.875	1.02	0.757	0.552	0.522	0.31	0.308	0.845	0.644	1.44	0.475	0.249
NCI-H2347	0.596	0.568	0.562	0.545	0.556	0.986	0.992	1.17	0.848	1.1	0.233	0.242	0.269	0.234	0.218	0.875	0.692	0.467	0.285	0.228
